Test results published in the supplement of paper PMC10307832.

What was measured:
Assay in all cases: relative viability (nuclei count vs DMSO), 5 days (fraction); higher = more cells survive
[1] = compound: COc1cc2nc(N3CCCN(C)CC3)nc(NC3CCN(Cc4ccccc4)CC3)c2cc1OC + CC(C)C[C@H](NC(=O)[C@H](Cc1ccccc1)NC(=O)c1cnccn1)B(O)O [Bortezomib] (partner 0.002 µM)
Outline: (§1)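 After 5 days of treatment, lung cancer cells in 1536-well plates were fixed and stained in a single step (final 0.05% Triton X-100, 1% formaldehyde, 1 ug/ml Hoechst) and their nuclei counted on 4× images. Treatment had been applied by pin tool the day after seeding as one drug alone or as a fixed anchor-drug dose with five library-drug doses (not always all listed) in √10 steps. Relative viability is the nuclei count of treated wells divided by that of vehicle wells, and values are medians of duplicate plates.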

[2] = compound: COc1cc2nc(N3CCCN(C)CC3)nc(NC3CCN(Cc4ccccc4)CC3)c2cc1OC + O=C(CCCCCCC(=O)Nc1ccccc1)NO [Vorinostat] (partner 1 µM)
Outline: as §1

[3] = compound: COc1cc2nc(N3CCCN(C)CC3)nc(NC3CCN(Cc4ccccc4)CC3)c2cc1OC + CCNC(=O)c1noc(-c2cc(C(C)C)c(O)cc2O)c1-c1ccc(CN2CCOCC2)cc1 [Luminespib] (partner 0.01 µM)
Outline: as §1

[4] = compound: COc1cc2nc(N3CCCN(C)CC3)nc(NC3CCN(Cc4ccccc4)CC3)c2cc1OC + C[C@@H](Oc1cc(-c2cnn(C3CCNCC3)c2)cnc1N)c1c(Cl)ccc(F)c1Cl [Crizotinib] (partner 1 µM)
Outline: as §1

## UMC-11
[1]; first compound 0.2 µM
  relative viability: 0.737
[1]; first compound 0.6325 µM
  relative viability: 0.778
[1]; first compound 2 µM
  relative viability: 0.71
[1]; first compound 6.325 µM
  relative viability: 0.594
[2]; first compound 0.2 µM
  relative viability: 0.361
[2]; first compound 0.6325 µM
  relative viability: 0.453
[2]; first compound 2 µM
  relative viability: 0.431
[2]; first compound 6.325 µM
  relative viability: 0.317
[3]; first compound 0.2 µM
  relative viability: 1.06
[3]; first compound 0.6325 µM
  relative viability: 1.08
[3]; first compound 2 µM
  relative viability: 1.05
[3]; first compound 6.325 µM
  relative viability: 0.816
[4]; first compound 0.2 µM
  relative viability: 0.614
[4]; first compound 0.6325 µM
  relative viability: 0.498
[4]; first compound 2 µM
  relative viability: 0.673
[4]; first compound 6.325 µM
  relative viability: 0.44
